How the values were obtained:
[1] = system: CD19+ cells from CLL patients; assay: Surface CD40, CD86, CD20 on CD19+ CLL cells (flow cytometry); type: cell-based, human; conditions: 0.5 μM lenalidomide and/or 10 μM compound, 48 hours
Method: Antibodies to CD20, CD40, CD80, CD86 or IgG1 (BD Biosciences, San Jose Calif.) were surface stained.
To extend these findings, inhibition of PI3K-δ prevented lenalidomide was investigated to see whether it induced up-regulation of other co-stimulatory molecules important to B-cell antigen presentation. […] Surface expression of CD40 or CD86 was evaluated by flow cytometry using a CD40- or CD86-PE antibodies and IgG1-PE isotype control.
Internalization of CD20 was evaluated by quantifying surface expression of CD20 by flow cytometry using a CD20-PE antibodies and IgG1-PE isotype control.

LB cells = assay: LB cell proliferation with or without BMSCs ([3H]-thymidine uptake); type: cell-based, human; conditions: 0.625 μM-10 μM, 48 hours, presence of BMSC
Method: Cell proliferation was assessed using [^3H]-thymidine uptake assay. All data represent mean (±SD) of triplicate experiment.

caspase 3 and PARP = assay: Cleavage of caspase 3 and PARP (immunoblot, Meso Scale plates); type: cell-based; conditions: 5 or 10 μM, 24 hrs
Method: FIGS. […]
Thereafter, cells were lysed and sized-fractionated and immunoblotted with antibody directed against FLIP, FIG. 29. Additionally, whole cell lysates were added to MDS (Meso Scale Diagnostics) multi-spot 96-well 4 spot plates coated with Total caspase-3, cleaved caspase-3, cleaved PARP, and BSA. Proteins were detected with antibodies labeled with SULFO-TAG reagent and quantified.

Method for patient MM cells: All MM cell lines were cultured in RPMI1640 medium. Bone marrow stromal cells (BMSCs) were cultured in Dulbecco's modification of Eagle's medium (DMEM) (Sigma) containing 15% fetal bovine serum, 2 mM L-glutamine (Life Technologies), 100 U/mL penicillin, and 100 μg/mL streptomycin (Life Technologies). […] Patient MM and BM cells were obtained from BM samples after informed consent was obtained per the Declaration of Helsinki and approval by the Institutional Review Board of the Dana-Farber Cancer Institute (Boston, Mass.). BM mononuclear cells were separated using Ficoll-Paque™ density sedimentation, and plasma cells were purified (>95% CD138+) by positive selection with anti-CD138 magnetic activated cell separation micro beads (Miltenyi Biotec, Auburn, Calif.). Tumor cells were also purified from the BM of MM patients using the RosetteSep negative selection system (StemCell Technologies, Vancouver, BC, Canada).
Data represent mean±SD viability, assessed by MTT assay of triplicate cultures, expressed as percentage of untreated controls.

Compound: CC[C@H](Nc1ncnc2[nH]cnc12)c1nc2cccc(F)c2c(=O)n1-c1ccccc1 [Compound I, 5-fluoro-3-phenyl-2-[1-(9H-purin-6-ylamino)-propyl]-3H-quinazolin-4-one]
- internalization of CD20 ([1]; N=5, p=0.0057): prevented this effect
- surface expression of CD40 and CD86 ([1]; N=25, p=0.0102 and <0.0001): prevent the up-regulation of CD40 and CD86 induced by lenalidomide
- cytotoxicity against patient MM cells (patient MM cells): induced cytotoxicity against patient MM cells
- LB cell growth (LB cells): LB cell growth is reduced
- cleavage of caspase 3 and PARP (caspase 3 and PARP): dose dependent response in the cleavage of caspase 3 and PARP

From patent US20130064812A1, “COMBINATION THERAPIES FOR HEMATOLOGIC MALIGNANCIES” (Gilead Calistoga LLC, priority 2011, published 2013)
